Data on one compound can be found in patent publication US11065211B2, “Isoxylitones mediated neurogenesis” (priority 2018, dated 2021).

Common to all, as to type: cell-based, rat
In test [1] the test system is cortical cells. Nature of the test: AlamarBlue proliferation assay. The settings on record: 24 h treatment, vs control, FIG. 3. The source says:
(§1) AlamarBlue (AB), a water-soluble dye having resazurin salt was used to evaluate the effect of isoxylitones on the proliferation of the cultured cells. AB measures mitochondrial reductase activity of live cells. The resazurin has ability to enter the cytosol of viable cell and converted to the reduced fluorescent form resorufin by mitochondrial enzyme activity by accepting electrons from NADPH, FADH, FMNH, NADH as well as from the cytochromes. The redox reaction is accompanied by a change in color of the culture medium from blue to fluorescent red (Al-Nasiry, Geusens, Hanssens, Luyten, Pijnenborg, 2007). The amount of fluorescence produced is proportional to the number of living cells (Al-Nasiry, Geusens, Hanssens, Luyten, Pijnenborg, 2007). The cultured hippocampal, cortical and co-cultures were plated in 96-well plates (10,000 cells/well) and incubated for 24 hrs at 37° C. and 5% CO2. […] After incubation, the fluorescence intensity in each well was recorded at an excitation wavelength of 570 nm and an emission wavelength of 600 nm. The rate of cell proliferation was expressed as the relative fluorescence intensity. […] The blank media fluorescence measurement was subtracted from fluorescence measurements of cells from the same run.
(§2) Formula used to calculate the percentage reduction of AB using absorbance readings: […]

Test [2] has as its system hippocampal cells. Nature of the test: AlamarBlue proliferation assay. The following applies: 24 h treatment, vs control, FIG. 3.
Source text: as §1, §2

For test [3], the system named is cortical cells. Nature of the test: BrdU proliferation ELISA assay. The settings on record: 150 μg/ml, 24 h, FIG. 5. How it is done:
(§3) BrdU-Incorporation Assay: For measuring the newly synthesized cells during proliferation of treated and un-treated cultured hippocampal, cortical and co-cultured cells, the BrdU (Calbiochem®, CA, USA) cell proliferation ELISA kit was used. This immunoassay is based on the measurement of BrdU (5-bromo-2′-deoxiurydine) incorporation into DNA during division phase of the proliferating cells. For BrdU proliferation assay, primary cultured cells were grown in 75 cm flasks and when cells were confluent they were trypsinized and re-plated with a cell density of 1×10^5 cells/mL in 96-well tissue culture grade flat bottom ELISA plates, i.e., (10,000 cells/well) in DMEM medium (high glucose). The plates were incubated overnight at 37° C. in 5% CO2. Next day, media was changed and adherent cells were treated with different doses of isoxylitones, i.e., 25, 50, 75, 100, and 150 μg/mL and incubated for 24 hrs in a humidified chamber at 37° C. and 5% CO2.
(§4) The following day, the cells were first labeled by the 20 μL of BrdU (1:2000) in fresh medium and kept in a humidified atmosphere at 37° C. for 24 hrs. During 20-24 hrs of labeling period, BrdU is incorporated in place of thymidine into the DNA of the proliferating cells. After removing the labeling medium by tapping off the plate, cells were fixed, and DNA denatured in one step by adding 200 μL of fixative or Denat solution (provided in the kit) in each well following incubation for 30 minutes at room temperature.
(§5) The fixation and denaturation of DNA is required to expose the incorporated BrdU for detection by the antibody. The fixative or Denat solution was removed by flicking off and tapping on paper towel. […] The immune complexes were detected by the subsequent substrate reaction and the absorbance was measured on spectrophotometer plate reader at dual wave lengths of 450-595 nm within 30 minutes of adding the stop solution. The data was analyzed using SPSS and graphs were made on Excel.
(In an ELISA, binding on a coated surface is turned into a signal by an enzyme label.)

For test [4], the system named is hippocampal cells. Nature of the test: BrdU proliferation ELISA assay. The following applies: 24 h, FIG. 5. How it is done:
as §3, §4, §5

`CC(=O)C=C1C=C(C)CC(C)(C)C1` (mixture of isomers) [isoxylitones]: the “proliferation (Alamar blue)” value with cortical cells [1] was “growth supportive and proliferative effect”; in the test on hippocampal cells [2], “growth supportive and proliferative effect”. Also, the BrdU positive cells entry is “slightly increased BrdU positive cells” with cortical cells [3], “significantly increased BrdU positive cells” in the test with hippocampal cells [4] (100 μg/ml) and “significantly increased BrdU positive cells” in the test on hippocampal cells [4] (150 μg/ml).
